Laboratory results: patent publication US20020098477A1, “METHODS FOR SCREENING NUCLEAR TRANSCRIPTION FACTORS FOR THE ABILITY TO MODULATE AN ESTROGEN RESPONSE” (priority 1997, published 2002)

Tests used:
[1] = system: AP-1 response element; assay: Coll73-LUC collagenase reporter gene assay in HeLa cells transfected with ER and GR; assay type: cell-based, human; settings: for AP-1 activation at dose used: TNF-α 10 ng/ml, data not shown
Description: Coll73-LUC and Coll60-CAT have been previously described (Webb et al. (1995) Mol. Endo., 9: 443-456; Lopez et al. (1993) Mol. Cell Biol., 13: 3042-3049). Coll73-LUC consists of −73 to +63 base pairs of the collagenase promoter upstream of the Luciferase reporter gene. Coll517-CAT and Coll517mAP-1-CAT each contain −517 to +63 of the collagenase promoter (Webb et al. (1995) Mol. Endo., 9: 443-456).
Coll517mAP-1-CAT contains three point mutations in the consensus AP-1 response element (TGAGTCA mutated to GTACTCA). ColALuc contains the collagenase AP-1 response element upstream of the minimal drosophila alcohol dehydrogenase promoter (Starr et al., (1996) Genes & Dev., 10: 1271-1283). The ER expression vectors have been previously described: PHE0 (Green et al. (1986) Nature, 320: 134-139), PHEG0 (Tora et al. (1989) EMBO J. 8: 1981-1986), HE11 (Kumar et al. (1986) EMBO J., 5: 2231-2236), and HE15 (Kumar et al. (1987) Cell, 51: 941-951). PHE0 contains a point mutation (Gly400Val). PHEG0 is the wild type ER. PHE0 has reduced affinity for estrogens which allows for studies in cell culture without inadvertent activation. The protein coding regions of the ER plasmids were cloned into the multiple cloning site of the pSG5 expression vector. pRSVhGR (McEwan et al. (1993) Mol. Cell. Biol., 13: 399-407) consists of a cDNA encoding the human GR coding region inserted into an expression vector driven by the Rous sarcoma virus promoter. The PR-A (PhPR-60) and PR-B (hPR65) plasmids were derived from T47D cDNA and genomic DNA (Law et al (1987) Proc. Natl. Acad. Sci., USA, 84: 2877-2881; Wei et al. (1988) Mol. Endo., 2: 62-72) and cloned into an expression vector derived from pLEN (Kushner et al. (1990) Mol. Endocrinol. 4: 1465-1473). The human c-Jun (Turner et al. (1989) Science, 243: 1689-1694)) and rat c-Fos (Cohen et al. (1989) Genes & Dev., 3: 173-184)), have been previously described. The beta-actin-hCG construct has been previously described (Lopez et al. (1993) Mol. Cell. Biol., 13: 3042-3049). The pJ3-LacZ plasmid is pBR322-based and contains an SV40 promoter which activates LacZ.
All cells were maintained in DME medium without phenol red. […]
(§1) Cells were transfected by electroporation as previously described (Webb et al. (1995) Mol. Endo., 9: 443-456). […] The efficiency of transfection was monitored by co-transfection with either a (hCG reporter driven by an actin promoter (Lopez et al. (1993) Mol. Cell. Biol., 13: 3042-3049) or by co-transfection with pJ3LACZ. CAT or luciferase activity was then corrected by dividing by hCG levels or β-galactosidase activity. Five micrograms of collagenase reporter plasmid, and 1 μg of GR expression vector were used in all experiments unless otherwise indicated. […]

[2] = system: PR-B; assay: ColALuc reporter assay in HeLa cells transfected with ER, PR-B and c-Jun; assay type: cell-based, human
Procedure: (§2) (FIG. 8A) HeLa cells were transfected with ColALuc (5 μg), ER (1 μg), PR-A or PR-B (1 μg), and c-Jun (3 μg). Data are from four separate transfections from three experiments for PR-A and from two transfections from two experiments for PR-B. Columns represent the average fold induction. (FIG. 8B) CV-1 cells were transfected with ColALuc (5 μg), ER (HE0, 0.5 μg), PR-A (1 μg) and c-Jun (3 μg). Data is from one experiment. Columns represent the average of two treatment points. Similar experiments have been repeated 3 times or less. (FIGS. 8A and 8B) Cells were treated with steroids immediately after transfection and harvested 40 hrs later. Error bars represent standard deviation.
(§3) Coll517mAP-1-CAT contains three point mutations in the consensus AP-1 response element (TGAGTCA mutated to GTACTCA). […]
as §1

[3] = system: PR-A; assay: ColALuc reporter assay in CV-1 cells transfected with ER, PR-A and c-Jun; assay type: cell-based, monkey
Procedure: as §2, §3, §1

[4] = system: PR-A; settings: HeLa, 10^−7 M
Procedure: (FIG. 8A) HeLa cells were transfected with ColALuc (5 μg), ER (1 μg), PR-A or PR-B (1 μg), and c-Jun (3 μg). Data are from four separate transfections from three experiments for PR-A and from two transfections from two experiments for PR-B. Columns represent the average fold induction. […] Similar experiments have been repeated 3 times or less. (FIGS. 8A and 8B) Cells were treated with steroids immediately after transfection and harvested 40 hrs later. Error bars represent standard deviation.
All cells were maintained in DME medium without phenol red. The medium was supplemented by serum (Sigma) which was tested for low estrogenic activity prior to use. […] In these experiments cells were treated with media containing charcoal-treated serum the night prior to transfection.

Molecule: CCCCCCCCCCCCCC(=O)O[C@@H]1[C@@H](C)[C@@]2(O)[C@@H](C=C(CO)C[C@]3(O)C(=O)C(C)=C[C@@H]23)[C@@H]2C(C)(C)[C@]12OC(C)=O [PMA]
- AP-1 activation at dose used ([1]; PMA 10^−7 M): maximal AP-1 activation
- transcriptional activity in the absence of steroids ([1]; PMA 10^−7 M, ER 5 μg, GR 1 μg): ten fold stimulation

Molecule: CCC(=O)[C@@]1(C)CC[C@H]2[C@@H]3CCC4=CC(=O)CCC4=C3CC[C@@]21C [R5020]
- activity of AP-1 site, single steroid ([2]; 10^−7 M): inhibited the basal activity
- progestin inhibition on treatment with both steroids ([2]; estradiol + progestin): loss of RU5020 inhibition
- progestin inhibition of estradiol with increased amounts of c-Jun ([3]; CV-1, PR-A, increasing c-Jun): maintained
- effect on the estradiol response ([3]; CV-1, transfected PR-A): inhibited the estradiol response
- activity of AP-1 site, single steroid [4]: inhibited the basal activity

Molecule: CC/C(=C(\c1ccccc1)c1ccc(OCCN(C)C)cc1)c1ccccc1 [tamoxifen]
- tamoxifen effect on transcription at Coll73 ([1]; tamoxifen 5×10^−6 M, HE0, GR 1 μg): activation

Molecule: TNF-α
- AP-1 activation at dose used ([1]; PMA 10^−7 M): maximal AP-1 activation
